Assay results reported in patent US5846720A, “Methods of determining chemicals that modulate expression of genes associated with cardiovascular disease” (Oncogene Science, Inc., priority 1996, dated 1998).

Experiments:
G-CSF mRNA = test: S1 nuclease protection, G-CSF mRNA; format: cell-based, human
Experimental: (§1) S1 Nuclease protection assays were carried out as described in reference 118.
(§2) To further confirm, that compounds that had been identified in a luciferase expression assay using a G-CSF specific reporter cell line would be active in inducing transcription of the endogenous G-CSF gene, cells from the parental cell line 5637 used to construct the reporter cell line were incubated with cycloheximide (25 ug/ml), DMSO (0.5%,solvent control) and low, medium and high concentrations of the compounds 542 (10, 50, 250 μM),1255 (20, 100, 500 uM), 1793(0.25, 1.2, 6.25 μM) and 1904 (20, 100 uM) for 18 hours. RNA was extracted and the concentration of G-CSF, GM-CSF and gamma-actin mRNA was determined by the S1 protection method as described in above. The positions of G-CSF GM-CSF and gamma-actin specific protected fragments are indicated (G, GM, A) at the left side of the gel (FIG. 37).

GM-CSF mRNA = test: S1 nuclease protection, GM-CSF mRNA; format: cell-based, human; conditions: 5637 cells, 18 hours
Experimental: as §1, §2

[1] = test system: 5637 bladder carcinoma cells; test: G-CSF secretion, two-antibody sandwich immunoassay; format: cell-based, human; conditions: 48 hours, serum-containing media
Experimental: Supernatants from 5637 bladder carcinoma cells incubated with chemicals registering as positives in the G-CSF promoter/luciferase high throughput assay were assayed for secreted G-CSF protein using the two-antibody sandwich immunoassay (83). The G-CSF Assay kit manufactured by Oncogene Science, Inc. was used and the manufacturer's instructions were followed.
The levels of G-CSF in the cell supernatants were determined by a sandwich-antibody assay as described in above (FIG. 42).

FRE cells = test: MTT respiratory inhibition cytotoxicity assay versus luciferase induction in G21; format: cell-based; conditions: G21 reporter cells vs FRE cells, 6 hours
Source text: To determine cytotoxic concentrations of chemicals registering as positives in the high throughput luciferase assay the MTT cytotoxicity assay was employed (82). In this assay, a tetrazolium salt [3-(4,5-dimethylthiazol-2-yl)-2,5-diphenyl -tetrazolium bromide, MTT] is reduced to a colored formazon product by reducing enzymes present only in living metabolically active cells.
To address the question whether the induction of G-CSF, and GM-CSF transcription by the compound #542 was a specific effect or rather a phenomenon linked to a potential sensitivity of these promoters to stress exerted by toxic compounds, the concentration dependency of induction of luciferase activity in the reporter cell line G21 was compared to the concentration dependency of inhibition of respiration in FRE cells. Cells were seeded into 96 well microtiter plates (20,000 cells/well) and cultured overnight. Compound #542 was added at various concentrations and the cells were incubated for 6 hours. Luciferase activity was determined as described above. The MTT-colorimetric assay was carried out on identically treated samples of FRE cells. Induction of luciferase reporter signal (plain line) and on inhibition of respiration (dashed line) are plotted versus the concentrations of compound (FIG. 40). […]

SMILES: Nc1nc(=O)n([C@H]2C[C@H](O)[C@@H](CO)O2)cc1Br [#542]
- amount of G-CSF mRNA (S1 nuclease protection) (G-CSF mRNA; 5637 cells, 18 hours): increased mRNA production
- levels of endogenous G-CSF mRNA (G-CSF mRNA; method not stated at the place): stimulate levels of endogenous G-CSF mRNA
- amount of GM-CSF mRNA (S1 nuclease protection) (GM-CSF mRNA): increased the amount of GM-CSF mRNA
- G-CSF secretion [1]: increased G-CSF secretion
- factor between ED50 for induction of luciferase activity and ED50 for inhibition of respiration (FRE cells): ~10 factor
